Where a name gives a salt, the structure may show the parent alone.

In this assay the test system is MCh-induced bronchoconstriction. In words: Einthoven assay: bronchoprotection against methacholine (MCh)-induced bronchoconstriction. Type of assay: in vivo. The note with it: Rattus norvegicus, inhaled or nasal, 24 h, read-out: Broncho. at 24 h, Bronchoprotective effect present at 24 h, 100 μg by inhalation, 24 h after administration. As for the experimental part: This assay measures the ability of a test compound to provide bronchoprotection against methacholine (MCh)-induced bronchoconstriction in a rat. Male Sprague-Dawley rats (Harlan, Indianapolis, Ind.), weighing between 200 g and 350 g, were used for all studies. Test compound or vehicle (sterile deionized water) were dosed by inhalation (1H) over a 10 min period in a pie shaped inhalation chamber (R+S Molds, San Carlos, Calif.) using 5 mL of dosing solution. […] Rats were dosed with 100 μg of test compound unless otherwise indicated. At predetermined time points, rats were anesthetized with an intraperitoneal (IP) injection of 120 mg/kg inactin (thiobutabarbital). A supplemental dose (40 mg/kg, IP) was administered if the animal responded to physical stimuli (e.g. toe pinch). The surgical site was shaved and a 1-2 cm midline incision of the ventral aspect of the neck was made. The jugular vein was isolated and cannulated with a saline-filled polyethylene catheter (PE-50) to allow IV infusion of MCh. Trachea was dissected free and cannulated with a 14G needle (#NE-014, Small Parts, Miami Lakes, Fla.). After placement of the tracheal cannula, each rat was ventilated using a respirator (Model 683, Harvard Apparatus, Inc., MA) set at a stroke volume of 1 mL/100 g body weight (but not exceeding 2.5 mL volume) and a rate of 90 strokes per minute. A T-connector was placed along the respirator expiratory tubing to allow for measurement of changes in ventilation pressure (VP) using a Biopac transducer that was connected to a Biopac […]) pre-amplifier. Body temperature was maintained at 37° C. using a heating pad. Changes in VP were recorded using the Acknowledge Data Collection Software (Santa Barbara, Calif.). Baseline values were collected for at least 2.5 min. Rats were then challenged with non-cumulative intravenous (IV) infusions of 40 and 80 μg/kg MCh. MCh was infused intravenously for 2.5 minutes from a syringe pump (sp210iw, World Precision Instruments, Inc., Sarasota, Fla.) at a rate of 2 mL/kg/min, with a 2 minute interval between the two doses of MCh. Changes in ventilation pressure (cm H2O) in treated animals are expressed as % inhibition of MCh response relative to control animals. Other bronchoconstrictors, such as histamine and acetylcholine, can be used in place of MCh in this assay. Additionally, guinea pigs can be used instead of rats. […] Inhibition greater than or equal to 30 percent at 24 h is indicative of a long duration of action.

On to `CC(Cc1ccc(CC(=O)NCc2ccc(N(C)C(=O)CCN3CCC(OC(=O)Nc4ccccc4-c4ccccc4)CC3)cc2)cc1)NC[C@H](O)c1ccc(O)c2[nH]c(=O)ccc12` (stereo partly drawn) [Compound I-80, Biphenyl-2-ylcarbamic acid 1-{2-[(4-{[2-(4-{2-[(R)-2-hydroxy-2-(8-hydroxy-2-oxo-1,2-dihydroquinolin-5-yl)-ethylamino]propyl}phenyl)acetylamino]methyl}-phenyl)methylcarbamoyl]ethyl}piperidin-4-yl ester ditrifluoroacetic acid salt], for which the inhibition in vivo at 0.1 mg is below 30%. As for `C[C@@H](Cc1cccc(CCNC(=O)c2ccc(N(C)C(=O)CCN3CCC(OC(=O)Nc4ccccc4-c4ccccc4)CC3)cc2)c1)NC[C@H](O)c1ccc(O)c2[nH]c(=O)ccc12` [Compound I-56, Biphenyl-2-ylcarbamic acid 1-[2-({4-[2-(3-{(S)-2-[(R)-2-hydroxy-2-(8-hydroxy-2-oxo-1,2-dihydroquinolin-5-yl)-ethylamino]propyl}phenyl)ethylcarbamoyl]phenyl}-methylcarbamoyl)ethyl]piperidin-4-yl ester ditrifluoroacetic acid salt], the figure is below 30%; as for `CC(Cc1ccc(CC(=O)Nc2cccc(N(C)C(=O)CCN3CCC(OC(=O)Nc4ccccc4-c4ccccc4)CC3)c2)cc1)NC[C@H](O)c1ccc(O)c2[nH]c(=O)ccc12` (stereo partly drawn) [Compound I-53, Biphenyl-2-ylcarbamic acid 1-[2-({3-[2-(4-{2-[(R)-2-hydroxy-2-(8-hydroxy-2-oxo-1,2-dihydroquinolin-5-yl)-ethylamino]propyl}phenyl)acetylamino]phenyl}methyl-carbamoyl)ethyl]piperidin-4-yl ester ditrifluoroacetic acid salt], below 30%; as for `CN(C(=O)CCN1CCC(OC(=O)Nc2ccccc2-c2ccccc2)CC1)c1cccc(C(=O)Nc2cccc(CCNC[C@H](O)c3ccc(O)c4[nH]c(=O)ccc34)c2)c1` [Compound I-32, ditrifluoroacetic acid salt], below 30%. For the compound `C[C@@H](Cc1cccc(CC(=O)NCc2ccc(N(C)C(=O)CCN3CCC(OC(=O)Nc4ccccc4-c4ccccc4)CC3)cc2)c1)NC[C@H](O)c1ccc(O)c2[nH]c(=O)ccc12` [Compound I-79, ditrifluoroacetic acid salt], the inhibition in vivo at 0.1 mg is below 30%. As for `C[C@@H](Cc1cccc(NC(=O)c2cccc(N(C)C(=O)CCN3CCC(OC(=O)Nc4ccccc4-c4ccccc4)CC3)c2)c1)NC[C@H](O)c1ccc(O)c2[nH]c(=O)ccc12` [Compound I-39, ditrifluoroacetic acid salt], the figure is below 30%. On to `Cc1ccc(C(=O)Nc2cccc(CC(C)NC[C@H](O)c3ccc(O)c4[nH]c(=O)ccc34)c2)cc1N(C)C(=O)CCN1CCC(OC(=O)Nc2ccccc2-c2ccccc2)CC1` (stereo partly drawn) [Compound I-37, Biphenyl-2-ylcarbamic acid 1-(2-{[5-(3-{2-[(R)-2-hydroxy-2-(8-hydroxy-2-oxo-1,2-dihydroquinolin-5-yl)-ethylamino]propyl}phenylcarbamoyl)-2-methylphenyl]-methylcarbamoyl}ethyl)piperidin-4-yl ester ditrifluoroacetic acid salt], for which the inhibition in vivo at 0.1 mg was below 30%. The value for `Cc1cc(CNC[C@H](O)c2ccc(O)c3[nH]c(=O)ccc23)ccc1NC(=O)c1ccc(C)c(N(C)C(=O)CCN2CCC(OC(=O)Nc3ccccc3-c3ccccc3)CC2)c1` [Compound I-28, ditrifluoroacetic acid salt] was below 30%. `CN(C(=O)CCN1CCC(OC(=O)Nc2ccccc2-c2ccccc2)CC1)c1cccc(C(=O)Nc2ccc(CCNC[C@H](O)c3ccc(O)c4[nH]c(=O)ccc34)cc2)c1` [Compound I-34, Ditrifluoroacetate]: the inhibition in vivo at 0.1 mg was above 30%. In the case of `Cc1cc(CNC[C@H](O)c2ccc(O)c3[nH]c(=O)ccc23)ccc1NC(=O)CCCN(C)C(=O)CCN1CCC(OC(=O)Nc2ccccc2-c2ccccc2)CC1` [Compound I-2, Biphenyl-2-ylcarbamic acid 1-(2-{[3-(4-{[(R)-2-hydroxy-2-(8-hydroxy-2-oxo-1,2-dihydroquinolin-5-yl)ethylamino]methyl}-2-methylphenylcarbamoyl)-propyl]methylcarbamoyl}ethyl)piperidin-4-yl ester ditrifluoroacetic acid salt], the inhibition in vivo at 0.1 mg is below 30%. On to `CC(Cc1cccc(CC(=O)Nc2cccc(N(C)C(=O)CCN3CCC(OC(=O)Nc4ccccc4-c4ccccc4)CC3)c2)c1)NC[C@H](O)c1ccc(O)c2[nH]c(=O)ccc12` (some centres unmarked) [Compound I-52, ditrifluoroacetic acid salt], for which the inhibition in vivo at 0.1 mg was below 30%. As for `CC(Cc1cccc(CNC(=O)c2cccc(N(C)C(=O)CCN3CCC(OC(=O)Nc4ccccc4-c4ccccc4)CC3)c2)c1)NC[C@H](O)c1ccc(O)c2[nH]c(=O)ccc12` (some centres unmarked) [Compound I-44, ditrifluoroacetic acid salt], the figure is below 30%. As for `C[C@H](Cc1cccc(NC(=O)c2cccc(N(C)C(=O)CCN3CCC(OC(=O)Nc4ccccc4-c4ccccc4)CC3)c2)c1)NC[C@H](O)c1ccc(O)c2[nH]c(=O)ccc12` [Compound I-38, Biphenyl-2-ylcarbamic acid 1-(2-{[3-(3-{(R)-2-[(R)-2-hydroxy-2-(8-hydroxy-2-oxo-1,2-dihydroquinolin-5-yl)-ethylamino]propyl}phenylcarbamoyl)phenyl]methyl-carbamoyl}ethyl)piperidin-4-yl ester ditrifluoroacetic acid salt], the figure is below 30%; as for `CC(Cc1ccc(CNC(=O)Cc2ccc(N(C)C(=O)CCN3CCC(OC(=O)Nc4ccccc4-c4ccccc4)CC3)cc2)cc1)NC[C@H](O)c1ccc(O)c2[nH]c(=O)ccc12` (stereo partly drawn) [Compound I-66, Biphenyl-2-ylcarbamic acid 1-[2-({4-[(4-{2-[(R)-2-hydroxy-2-(8-hydroxy-2-oxo-1,2-dihydroquinolin-5-yl)-ethylamino]propyl}benzylcarbamoyl)methyl]phenyl}-methylcarbamoyl)ethyl]piperidin-4-yl ester ditrifluoroacetic acid salt], below 30%. As to `COc1cc(CNC[C@H](O)c2ccc(O)c3[nH]c(=O)ccc23)ccc1NC(=O)c1cccc(N(C)C(=O)CCN2CCC(OC(=O)Nc3ccccc3-c3ccccc3)CC2)c1` [Compound I-29, ditrifluoroacetic acid salt], the inhibition in vivo at 0.1 mg was below 30%. As for `Cc1cc(NC(=O)c2cccc(N(C)C(=O)CCN3CCC(OC(=O)Nc4ccccc4-c4ccccc4)CC3)c2)c(C)cc1CNC[C@H](O)c1ccc(O)c2[nH]c(=O)ccc12` [Compound I-30, ditrifluoroacetic acid salt], the figure is below 30%. As to `Cc1ccc(C(=O)Nc2cccc(CCNC[C@H](O)c3ccc(O)c4[nH]c(=O)ccc34)c2)cc1N(C)C(=O)CCN1CCC(OC(=O)Nc2ccccc2-c2ccccc2)CC1` [Compound I-33, Biphenyl-2-ylcarbamic acid 1-(2-{[5-(3-{2-[(R)-2-hydroxy-2-(8-hydroxy-2-oxo-1,2-dihydroquinolin-5-yl)-ethylamino]ethyl}phenylcarbamoyl)-2-methylphenyl]-methylcarbamoyl}ethyl)piperidin-4-yl ester ditrifluoroacetic acid salt], the inhibition in vivo at 0.1 mg was below 30%.

Source of the values: US8816088B2 (Theravance, Inc., priority 2009, dated 2014).
